What was measured:
Assay in all cases: combination Emax (second highest fraction inhibited in the dose matrix, 72 h); higher = more inhibition; extreme values may be limits of the assay
[1] = test system: HuP-T3 (Pancreatic Carcinoma)
In short: (§1)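 Cell lines in DMEM/F12 or RPMI with 10% FBS were plated in 1536-well plates, held 24 hours at 37°C, 5% CO2, then given two-drug dose matrices for 72 hours (DMSO typically 0.2%). Viability was read by CellTiter-Glo 2.0 luminescence and scaled as inhibition from 0 (vehicle wells) to 1 (blank wells). Combination Emax is the second-highest inhibition in the matrix; Bliss excess is observed combination effect minus expected EA + EB − EA·EB, EA and EB being single-agent effects.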

[2] = test system: VMRC-LCD (Lung Adenocarcinoma)
In short: as §1

[3] = test system: BT-20 (Breast Carcinoma)
In short: as §1

[4] = test system: ASH-3 (Thyroid Gland Carcinoma)
In short: as §1

[5] = test system: JHH-7 (Hepatocellular Carcinoma)
In short: as §1

[6] = test system: EBC-1 (Squamous Cell Lung Carcinoma)
In short: as §1

[7] = test system: OVISE (Ovarian Carcinoma)
In short: as §1

[8] = test system: NCI-H322M (Lung Adenocarcinoma)
In short: as §1

[9] = test system: HC-1 (Other Blood Carcinomas)
In short: as §1

[10] = test system: SCC-9 (Oral Cavity Carcinoma)
In short: as §1

[11] = test system: EW-18 (Ewing's Sarcoma)
In short: as §1

[12] = test system: SCC-3 (B-Cell Non-Hodgkin's Lymphoma)
In short: as §1

[13] = test system: A704 (Kidney Carcinoma)
In short: as §1

[14] = test system: KLE (Endometrial Carcinoma)
In short: as §1

[15] = test system: GOTO (Neuroblastoma)
In short: as §1

[16] = test system: NCI-H2347 (Lung Adenocarcinoma)
In short: as §1

[17] = test system: KINGS-1 (Low Grade Glioma)
In short: as §1

[18] = test system: NCI-H2405 (Lung Adenocarcinoma)
In short: as §1

[19] = test system: U-87-MG (Glioblastoma)
In short: as §1

[20] = test system: PFSK-1 (Other Solid Carcinomas)
In short: as §1

Compound	combination Emax [1]	combination Emax [2]	combination Emax [3]	combination Emax [4]	combination Emax [5]	combination Emax [6]	combination Emax [7]	combination Emax [8]	combination Emax [9]	combination Emax [10]	combination Emax [11]	combination Emax [12]	combination Emax [13]	combination Emax [14]	combination Emax [15]	combination Emax [16]	combination Emax [17]	combination Emax [18]	combination Emax [19]	combination Emax [20]
NC1(C(=O)N[C@@H](CCO)c2ccc(Cl)cc2)CCN(c2ncnc3[nH]ccc23)CC1 [Capivasertib] + CC(=O)c1c(C)c2cnc(Nc3ccc(N4CCNCC4)cn3)nc2n(C2CCCC2)c1=O [Palbociclib] (first compound max 10 µM, 7x7, partner max 10 µM)	0.324	0.127	0.81	0.581	0.302	0.612	0.467	0.639	0.632	0.289	0.807	0.479	0.665	0.377	0.81	0.271	0.414	0.612	0.585	0.489
C[C@@H](c1ccc2nccn2c1)n1nnc2ncc(-c3cnn(C)c3)nc21 [Savolitinib] + CC1(C)CCC(CN2CCN(c3ccc(C(=O)NS(=O)(=O)c4ccc(NCC5CCOCC5)c([N+](=O)[O-])c4)c(Oc4cnc5[nH]ccc5c4)c3)CC2)=C(c2ccc(Cl)cc2)C1 [Venetoclax] (first compound max 1 µM, 7x7, partner max 1 µM)	0.0903	0.128	0.0828	0.16	0.114	0.968	0.0991	0.0582	0.173	0.116	0.229	0.0971	0.246	0.0864	0.266	0.116	0.334	0.038	0.252	0.302
Cn1cnc2c(F)c(Nc3ccc(Br)cc3Cl)c(C(=O)NOCCO)cc21 [Selumetinib] + CCN(CCO)CCCOc1ccc2c(Nc3cc(CC(=O)Nc4cccc(F)c4)[nH]n3)ncnc2c1 [AZD2811] (first compound max 10 µM, 7x7, partner max 1 µM)	0.359	0.585	0.474	0.391	0.25	0.964	0.273	0.602	0.702	0.494	0.7	0.43	0.178	0.286	0.648	0.312	0.22	0.408	0.252	0.313
CS(=O)(=O)CCNCc1ccc(-c2ccc3ncnc(Nc4ccc(OCc5cccc(F)c5)c(Cl)c4)c3c2)o1 [Lapatinib] + C[C@@H](Oc1cc(-c2cnn(C3CCNCC3)c2)cnc1N)c1c(Cl)ccc(F)c1Cl [Crizotinib] (first compound max 10 µM, 7x7, partner max 10 µM)	0.579	0.711	0.652	0.908	0.614	1	0.888	0.876	0.898	0.964	0.951	0.999	0.905	0.51	1	0.301	0.921	0.193	0.613	0.956
Cc1c2c(nn1C)CSCc1cc(n(C)n1)CSc1cc(c3ccccc3c1)OCCCc1c(C(=O)O)n(C)c3c-2c(Cl)ccc13 [AZD5991] + C[C@@H](Nc1cc(F)cc(F)c1)c1cc(C(=O)N(C)C)cc2c(=O)cc(N3CCOCC3)oc12 [AZD8186] (first compound max 1 µM, 7x7, partner max 3 µM)	0.288	0.196	0.614	0.46	0.169	0.307	0.325	0.414	0.534	0.378	0.94	0.409	0.496	0.493	0.654	0.279	0.366	0.165	0.45	0.998
Cc1c2c(nn1C)CSCc1cc(n(C)n1)CSc1cc(c3ccccc3c1)OCCCc1c(C(=O)O)n(C)c3c-2c(Cl)ccc13 [AZD5991] + CC1(C)CCC(CN2CCN(c3ccc(C(=O)NS(=O)(=O)c4ccc(NCC5CCOCC5)c([N+](=O)[O-])c4)c(Oc4cnc5[nH]ccc5c4)c3)CC2)=C(c2ccc(Cl)cc2)C1 [Venetoclax] (first compound max 1 µM, 7x7, partner max 1 µM)	0.128	0.164	0.889	0.325	0.221	0.199	0.442	0.155	0.762	0.256	0.919	0.358	0.344	0.156	0.795	0.138	0.266	0.175	0.174	1
CN(CCO)CC[C@H](CSc1ccccc1)Nc1ccc(S(=O)(=O)NC(=O)c2ccc(N3CCC([C@@H](O)c4ccccc4-c4ccc(Cl)cc4)CC3)cc2)cc1S(=O)(=O)C(F)(F)F [AZD4320] + Cc1cc2ncnn2cc1Nc1ncc2c(n1)n(C1CCOCC1)c(=O)n2C [AZD7648] (first compound max 1 µM, 7x7, partner max 10 µM)	0.153	0.0704	0.606	0.542	0.344	0.947	0.779	0.254	0.58	0.306	0.883	0.337	0.563	0.337	0.633	0.432	0.466	0.186	0.311	0.397
CC1(C)CCC(CN2CCN(c3ccc(C(=O)NS(=O)(=O)c4ccc(NCC5CCOCC5)c([N+](=O)[O-])c4)c(Oc4cnc5[nH]ccc5c4)c3)CC2)=C(c2ccc(Cl)cc2)C1 [Venetoclax] + C[C@@H]1COCCN1C2=NC(=NC(=C2)C3(CC3)[S@](=N)(=O)C)C4=C5C=CNC5=NC=C4 [AZD6738] (first compound max 1 µM, 7x7, partner max 10 µM)	0.663	0.537	0.491	0.57	0.285	0.514	0.677	0.894	0.864	0.342	0.67	0.938	0.48	0.515	0.966	0.402	0.344	0.305	0.596	0.685
COc1nnc2ccc(N3CCC(c4ccc(OCCN5CCN(C)C(=O)[C@H]5C)cc4)CC3)nn12 [AZD5153] + CC1(C)CCC(CN2CCN(c3ccc(C(=O)NS(=O)(=O)c4ccc(NCC5CCOCC5)c([N+](=O)[O-])c4)c(Oc4cnc5[nH]ccc5c4)c3)CC2)=C(c2ccc(Cl)cc2)C1 [Venetoclax] (first compound max 1 µM, 7x7, partner max 1 µM)	0.517	0.489	0.138	0.718	0.348	0.802	0.549	0.515	0.557	0.407	0.615	0.887	0.585	0.609	0.813	0.331	0.159	0.319	0.546	0.595
CC1(C)CCC(CN2CCN(c3ccc(C(=O)NS(=O)(=O)c4ccc(NCC5CCOCC5)c([N+](=O)[O-])c4)c(Oc4cnc5[nH]ccc5c4)c3)CC2)=C(c2ccc(Cl)cc2)C1 [Venetoclax] + Cc1cc2ncnn2cc1Nc1ncc2c(n1)n(C1CCOCC1)c(=O)n2C [AZD7648] (first compound max 1 µM, 7x7, partner max 10 µM)	0.166	0.179	0.374	0.263	0.134	0.26	0.275	0.414	0.481	0.194	0.455	0.214	0.32	0.444	0.434	0.194	0.329	0.103	0.354	0.489
Cc1c2c(nn1C)CSCc1cc(n(C)n1)CSc1cc(c3ccccc3c1)OCCCc1c(C(=O)O)n(C)c3c-2c(Cl)ccc13 [AZD5991] + C=CCn1c(=O)c2cnc(Nc3ccc(N4CCN(C)CC4)cc3)nc2n1-c1cccc(C(C)(C)O)n1 [AZD1775] (first compound max 1 µM, partner max 1 µM)	0.457	0.506	0.809	0.339	0.415	0.299	0.633	0.854	0.994	0.331	0.91	0.85	0.43	0.538	0.834	0.357	0.334	0.262	0.457	1
CN(CCO)CC[C@H](CSc1ccccc1)Nc1ccc(S(=O)(=O)NC(=O)c2ccc(N3CCC([C@@H](O)c4ccccc4-c4ccc(Cl)cc4)CC3)cc2)cc1S(=O)(=O)C(F)(F)F [AZD4320] + C[C@@H](Nc1cc(F)cc(F)c1)c1cc(C(=O)N(C)C)cc2c(=O)cc(N3CCOCC3)oc12 [AZD8186] (first compound max 1 µM, 7x7, partner max 3 µM)	0.332	0.249	0.614	0.682	0.368	0.972	0.881	0.506	0.965	0.746	0.914	0.543	0.57	0.61	0.831	0.698	0.629	0.417	0.527	0.471

— the supplement of paper PMC11061612
